Measured values published in patent US4760136A, “Chartreusin derivatives and salts thereof” (Ishihara Sangyo Kaisha, Ltd., priority 1984, dated 1988).
Read-outs that look alike come from different tables or passages of the source.

Key:
P-388 leukemia cells = experiment: Antitumor activity: P-388 leukemia cells inoculated intraperitoneally, drug administered intravenously, BDF1 mice; assay type: in vivo; conditions: for response vs control in vivo at 80 mg/kg: dose f: 80 mg/kg × 3, i.v. on days 1, 5 and 9
Method: Into BDF1 mice were inoculated intraperitoneally P-388 leukemia cells at a rate of 1×10^6 cells/mouse, and each drug to be tested was administered intravenously on the first, fifth and ninth days after the inoculation. […] The drugs were as follows solutions prepared by adding physiological saline to each of compound Nos. 8, 9, 10, 11, 17, 34, 42, 59, 80 and 134; suspensions prepared by dispersing each of compound Nos. 41, 78, 98, 100, 130, 191, 212, 213, 215, 227 and 230 to 232 and a small amount of sodium carboxymethyl cellulose (Na.CMC) in physiological saline, […]

[1] = Acute toxicity, intravenous (once), ddY mice; assay type: in vivo; conditions: mouse, in vivo, formulated per Preparation Example
Source text: In Table 7 are shown acute toxicity values (LD50, mg/kg) in ddY mice in the case of intravenously administering (once) each of the compounds of this invention in the form of preparations shown in the Preparation Examples shown in Table 7.

[2] = Mus musculus, P388, iv, dose c: 40 mg/kg × 3, i.v. on days 1, 5 and 9, BDF1 mice, P-388 i.p., read-out: T/C (%) of MST
[3] = Mus musculus, P388, iv, BDF1 mice, P-388 i.p., read-out: T/C (%) of MST
[4] = Mus musculus, P388, iv, dose b: 20 mg/kg × 3, i.v. on days 1, 5 and 9, BDF1 mice, P-388 i.p., read-out: T/C (%) of MST
[5] = dose c: 40 mg/kg × 3, i.v. on days 1, 5 and 9, BDF1 mice, P-388 i.p.
[6] = dose b: 20 mg/kg × 3, i.v. on days 1, 5 and 9, BDF1 mice, P-388 i.p.

| Compound | LD50 ([1]; iv) | response vs control in vivo at 40 mg/kg (P-388 leukemia cells; [2]) | response vs control in vivo at 80 mg/kg (P-388 leukemia cells; [3]) | further results |
| --- | --- | --- | --- | --- |
| COC1C(O)C(C)OC(OC2C(Oc3cccc4c(OC(=O)CCNC(=O)C(Cl)(Cl)Cl)c5c(=O)oc6ccc(C)c7c(=O)oc(c34)c5c67)OC(C)C3OC(C)(C)OC32)C1O (stereo not drawn) [Compound No. 112, 6-O-(N-Trichloroacetyl-β-Alanyl)-3',4'-O-Isopropylidene-Chartreusin] | ≥ 100 mg/kg | – | – | response vs control in vivo at 50 mg/kg (P-388 leukemia cells; Mus musculus, P388, iv, dose d: 50 mg/kg × 3, i.v. on days 1, 5 and 9, BDF1 mice, P-388 i.p., read-out: T/C (%) of MST): 148% |
| COC1C(O)C(C)OC(OC2C(Oc3cccc4c(OC(=O)CC(C)NC(=O)C(F)(F)F)c5c(=O)oc6ccc(C)c7c(=O)oc(c34)c5c67)OC(C)C3OC(C)(C)OC32)C1O (stereo not drawn) [Compound No. 51] | ≥ 100 mg/kg | 136% | 207% | – |
| CO[C@H]1[C@@H](O)[C@@H](C)O[C@H](O[C@H]2[C@H](Oc3cccc4c(OC(=O)c5ccc(C(F)(F)F)cc5)c5c(=O)oc6ccc(C)c7c(=O)oc(c34)c5c67)O[C@H](C)[C@@H]3OC(C)(C)O[C@@H]32)[C@@H]1O [Compound No. 182] | ≥ 80 mg/kg | 153% | 192% | – |
| COC1C(O)C(C)OC(OC2C(Oc3cccc4c(OC(=O)CCCCCCCNC(=O)C(F)(F)F)c5c(=O)oc6ccc(C)c7c(=O)oc(c34)c5c67)OC(C)C3OC(c4ccccc4)OC32)C1O (stereo not drawn) [compound 77] | ≥ 40 mg/kg | 186% | – | response vs control in vivo at 20 mg/kg (P-388 leukemia cells; [4]): 135% |
| COC1C(O)C(C)OC(OC2C(Oc3cccc4c(OC(=O)C(C)OCc5ccccc5)c5c(=O)oc6ccc(C)c7c(=O)oc(c34)c5c67)OC(C)C3OC(c4ccccc4)OC32)C1O (stereo not drawn) [Compound No. 151] | ≥ 40 mg/kg | 224% | – | response vs control in vivo at 20 mg/kg (P-388 leukemia cells; [4]): 155% |
| COC1C(O)C(C)OC(OC2C(Oc3cccc4c(OC(=O)C(C)CNC(=O)c5ccccc5)c5c(=O)oc6ccc(C)c7c(=O)oc(c34)c5c67)OC(C)C3OC(c4ccccc4)OC32)C1O (stereo not drawn) [Compound No. 13] | ≥ 40 mg/kg | 262% | – | response vs control in vivo at 20 mg/kg (P-388 leukemia cells; [4]): 186% |
| COC1C(O)C(C)OC(OC2C(Oc3cccc4c(OC(=O)CC(C)C)c5c(=O)oc6ccc(C)c7c(=O)oc(c34)c5c67)OC(C)C3OC(c4ccccc4)OC32)C1O (stereo not drawn) [Compound No. 169, 6-O-(3-Methyl-n-Butyryl)-3',4'-O-Benzylidene-Chartreusin] | ≥ 40 mg/kg | – | – | response vs control in vivo at 20 mg/kg (P-388 leukemia cells; [4]): 202% |
| COC(=O)c1ccc(C(=O)Oc2c3cccc(O[C@@H]4O[C@H](C)[C@@H]5OC(C)(C)O[C@@H]5[C@H]4O[C@H]4O[C@H](C)[C@H](O)[C@H](OC)[C@H]4O)c3c3oc(=O)c4c(C)ccc5oc(=O)c2c3c54)cc1 [compound 207] | ≥ 80 mg/kg | 130% | 192% | – |
| C/C=C(\C)C(=O)Oc1c2cccc(OC3OC(C)C4OC(c5ccc(OC)cc5)OC4C3OC3OC(C)C(O)C(OC)C3O)c2c2oc(=O)c3c(C)ccc4oc(=O)c1c2c43 (stereo not drawn) [compound 234] | – | – | – | response vs control in vivo at 40 mg/kg (P-388 leukemia cells; Mus musculus, P388, iv, read-out: T/C (%) of MST): 135%; LD50 [1]: ≥ 40 mg/kg |
| CO[C@H]1[C@@H](O)[C@@H](C)O[C@H](O[C@H]2[C@H](Oc3cccc4c(OC(=O)C=C(C)C(F)(F)F)c5c(=O)oc6ccc(C)c7c(=O)oc(c34)c5c67)O[C@H](C)[C@@H]3OC(C)(C)O[C@@H]32)[C@@H]1O [compound 198] | ≥ 80 mg/kg | 176% | – | – |
| COc1ccc(C2OC3C(C)OC(Oc4cccc5c(OC(=O)CCNC=O)c6c(=O)oc7ccc(C)c8c(=O)oc(c45)c6c78)C(OC4OC(C)C(O)C(OC)C4O)C3O2)cc1 (stereo not drawn) [compound 95] | ≥ 40 mg/kg | 173% | – | – |
| COC1C(O)C(C)OC(OC2C(Oc3cccc4c(OC(=O)CNC(=O)CNC(=O)CNC(=O)OCc5ccccc5)c5c(=O)oc6ccc(C)c7c(=O)oc(c34)c5c67)OC(C)C3OC(c4cccc(F)c4)OC32)C1O (stereo not drawn) [compound 116] | ≥ 30 mg/kg | 130% | – | – |
| COC1C(O)C(C)OC(OC2C(Oc3cccc4c(OC(=O)CCC(C)=O)c5c(=O)oc6ccc(C)c7c(=O)oc(c34)c5c67)OC(C)C3OC(c4cccc(C(F)(F)F)c4)OC32)C1O (stereo not drawn) [Compound No. 162] | ≥ 80 mg/kg | 157% | 243% | – |
| CCOCCC(=O)Oc1c2cccc(OC3OC(C)C4OC(C)(C)OC4C3OC3OC(C)C(O)C(OC)C3O)c2c2oc(=O)c3c(C)ccc4oc(=O)c1c2c43 (stereo not drawn) [Compound No. 176] | ≥ 80 mg/kg | 155% | 208% | – |
| CO[C@H]1[C@@H](O)[C@@H](C)O[C@H](O[C@H]2[C@H](Oc3cccc4c(OC(=O)c5ccc(Cl)cc5)c5c(=O)oc6ccc(C)c7c(=O)oc(c34)c5c67)O[C@H](C)[C@@H]3OC(c4ccccc4)O[C@@H]32)[C@@H]1O (stereo partly drawn) [compound 194] | ≥ 40 mg/kg | 192% | – | response vs control in vivo at 20 mg/kg (P-388 leukemia cells; [4]): 130% |
| CO[C@H]1[C@@H](O)[C@@H](C)O[C@H](O[C@H]2[C@H](Oc3cccc4c(OC(=O)c5ccc(C#N)cc5)c5c(=O)oc6ccc(C)c7c(=O)oc(c34)c5c67)O[C@H](C)[C@@H]3OC(C)(C)O[C@@H]32)[C@@H]1O [Compound No. 183] | ≥ 80 mg/kg | 153% | 192% | – |
| COC1C(O)C(C)OC(OC2C(Oc3cccc4c(OC(=O)CCCl)c5c(=O)oc6ccc(C)c7c(=O)oc(c34)c5c67)OC(C)C3OC(C)(C)OC32)C1O (stereo not drawn) [Compound No. 157] | ≥ 80 mg/kg | 153% | 201% | – |
| COC1C(O)C(C)OC(OC2C(Oc3cccc4c(OC(=O)C5CCCCC5NC(=O)C(F)(F)F)c5c(=O)oc6ccc(C)c7c(=O)oc(c34)c5c67)OC(C)C3OC(c4ccccc4)OC32)C1O (single isomer, unassigned) [Compound No. 118, 6-O-(N-Trifluoroacetyl-2-Amino-Cyclohexanecarbonyl)-3',4'-O-Benzylidene-Chartreusin] | ≥ 40 mg/kg | – | – | T/C (%) of MST (P-388 leukemia cells; [5]): 135% |
| COC1C(O)C(C)OC(OC2C(Oc3cccc4c(OC(=O)CCNC(=O)OCc5ccccc5)c5c(=O)oc6ccc(C)c7c(=O)oc(c34)c5c67)OC(C)C3OC(c4ccccc4)OC32)C1O (stereo not drawn) [compound 103] | – | 146% | 203% | – |
| COC1C(O)C(C)OC(OC2C(Oc3cccc4c(OC(=O)CCNC(=O)C(F)(F)F)c5c(=O)oc6ccc(C)c7c(=O)oc(c34)c5c67)OC(C)C3OC(c4ccccc4)OC32)C1O (stereo not drawn) [Compound No. 21] | – | – | – | response vs control in vivo at 20 mg/kg (P-388 leukemia cells; [4]): 210%; T/C (%) of MST (P-388 leukemia cells; [5]): 229% |
| COC1C(O)C(C)OC(OC2C(Oc3cccc4c(OC(=O)c5cccc(Cl)c5)c5c(=O)oc6ccc(C)c7c(=O)oc(c34)c5c67)OC(C)C3OC(C)(C)OC32)C1O (stereo not drawn) [compound 226] | – | 145% | – | – |
| COC1C(O)C(C)OC(OC2C(Oc3cccc4c(OC(=O)CCCOCc5ccccc5)c5c(=O)oc6ccc(C)c7c(=O)oc(c34)c5c67)OC(C)C3OC(c4ccccc4)OC32)C1O (stereo not drawn) [Compound No. 165, 6-O-(4-benzyloxy-n-butyryl)-3',4'-O-Benzylidene-Chartreusin] | – | – | – | response vs control in vivo at 20 mg/kg (P-388 leukemia cells; [4]): 189% |
| COC1C(O)C(C)OC(OC2C(Oc3cccc4c(OC(=O)CNC(=O)OCc5ccccc5)c5c(=O)oc6ccc(C)c7c(=O)oc(c34)c5c67)OC(C)C3OC(c4ccccc4)OC32)C1O (stereo not drawn) [compound 104] | – | 137% | – | – |
| COC1C(O)C(C)OC(OC2C(Oc3cccc4c(OC(=O)C(C)CNC(=O)C(F)(F)F)c5c(=O)oc6ccc(C)c7c(=O)oc(c34)c5c67)OC(C)C3OC(c4ccccc4)OC32)C1O (stereo not drawn) [Compound No. 44] | – | – | 217% | T/C (%) of MST (P-388 leukemia cells; [5]): 164% |
| COC1C(O)C(C)OC(OC2C(Oc3cccc4c(OC(=O)CCNC=O)c5c(=O)oc6ccc(C)c7c(=O)oc(c34)c5c67)OC(C)C3OC(c4ccccc4)OC32)C1O (stereo not drawn) [Compound No. 20] | – | 248% | – | T/C (%) of MST (P-388 leukemia cells; [6]): 203% |
| COC1C(O)C(C)OC(OC2C(Oc3cccc4c(OC(=O)CCNC=O)c5c(=O)oc6ccc(C)c7c(=O)oc(c34)c5c67)OC(C)C3OC(c4ccccc4)OC32)C1O (stereo not drawn) [Compound No. 45] | – | 220% | – | T/C (%) of MST (P-388 leukemia cells; [6]): 164% |
